Results published in the NIST ThermoML archive (doi:10.1021/je4003256).
± gives the expanded uncertainty stated by the source.

Details: 101.33 kPa, Liquid; for speed of sound: Pulse-echo method; for mass density: Vibrating tube method

Compound: Cc1ccc(O)cc1 [4-methylphenol]
- speed of sound (293.15 K): 1502.9 ± 2.1 m/s
- mass density (293.15 K): 1034.09 ± 0.91 kg/m3
- speed of sound (298.15 K): 1487.2 ± 2.1 m/s
- mass density (298.15 K): 1030.25 ± 0.9 kg/m3
- speed of sound (303.15 K): 1471.4 ± 2.1 m/s
- mass density (303.15 K): 1026.39 ± 0.89 kg/m3
- speed of sound (308.15 K): 1455.6 ± 2.1 m/s
- mass density (308.15 K): 1022.5 ± 0.88 kg/m3
- speed of sound (313.15 K): 1440 ± 2.1 m/s
- mass density (313.15 K): 1018.59 ± 0.88 kg/m3
- speed of sound (318.15 K): 1424.3 ± 2.1 m/s
- mass density (318.15 K): 1014.66 ± 0.87 kg/m3
- speed of sound (323.15 K): 1408.7 ± 2.1 m/s
- mass density (323.15 K): 1010.7 ± 0.86 kg/m3
- speed of sound (328.15 K): 1393 ± 2.1 m/s
- mass density (328.15 K): 1006.72 ± 0.85 kg/m3
- speed of sound (333.15 K): 1377.4 ± 2.1 m/s
- mass density (333.15 K): 1002.7 ± 0.84 kg/m3
- speed of sound (338.15 K): 1361.8 ± 2.1 m/s
- mass density (338.15 K): 998.659 ± 0.84 kg/m3
- speed of sound (343.15 K): 1346.2 ± 2.1 m/s
- mass density (343.15 K): 994.587 ± 0.83 kg/m3

Compound: C=CCc1ccc(O)c(OC)c1 [2-hydroxy-5-allylanisole]
- speed of sound (288.15 K): 1515.3 ± 1.3 m/s
- mass density (288.15 K): 1070.9 ± 0.29 kg/m3
- speed of sound (293.15 K): 1497 ± 1.3 m/s
- mass density (293.15 K): 1066.48 ± 0.28 kg/m3
- speed of sound (298.15 K): 1478.7 ± 1.3 m/s
- mass density (298.15 K): 1062.06 ± 0.28 kg/m3
- speed of sound (303.15 K): 1460.3 ± 1.3 m/s
- mass density (303.15 K): 1057.64 ± 0.28 kg/m3
- speed of sound (308.15 K): 1442.2 ± 1.3 m/s
- mass density (308.15 K): 1053.21 ± 0.27 kg/m3
- speed of sound (313.15 K): 1424.1 ± 1.3 m/s
- mass density (313.15 K): 1048.78 ± 0.27 kg/m3
- speed of sound (318.15 K): 1406.1 ± 1.2 m/s
- mass density (318.15 K): 1044.35 ± 0.27 kg/m3
- speed of sound (323.15 K): 1388.2 ± 1.2 m/s
- mass density (323.15 K): 1039.92 ± 0.26 kg/m3
- speed of sound (328.15 K): 1370.5 ± 1.2 m/s
- mass density (328.15 K): 1035.48 ± 0.26 kg/m3
- speed of sound (333.15 K): 1352.8 ± 1.2 m/s
- mass density (333.15 K): 1031.04 ± 0.25 kg/m3
- speed of sound (338.15 K): 1335.2 ± 1.2 m/s
- mass density (338.15 K): 1026.6 ± 0.25 kg/m3
- speed of sound (343.15 K): 1317.8 ± 1.2 m/s
- mass density (343.15 K): 1022.15 ± 0.25 kg/m3

Compound: COC(=O)c1ccccc1O [methyl 2-hydroxybenzoate]
- speed of sound (288.15 K): 1447.6 ± 1.3 m/s
- mass density (288.15 K): 1189.32 ± 0.39 kg/m3
- speed of sound (293.15 K): 1429.1 ± 1.3 m/s
- mass density (293.15 K): 1184.33 ± 0.38 kg/m3
- speed of sound (298.15 K): 1410.6 ± 1.3 m/s
- mass density (298.15 K): 1179.34 ± 0.38 kg/m3
- speed of sound (303.15 K): 1392.3 ± 1.2 m/s
- mass density (303.15 K): 1174.35 ± 0.37 kg/m3
- speed of sound (308.15 K): 1374 ± 1.2 m/s
- mass density (308.15 K): 1169.37 ± 0.37 kg/m3
- speed of sound (313.15 K): 1356 ± 1.2 m/s
- mass density (313.15 K): 1164.38 ± 0.36 kg/m3
- speed of sound (318.15 K): 1338.1 ± 1.2 m/s
- mass density (318.15 K): 1159.4 ± 0.36 kg/m3
- speed of sound (323.15 K): 1320.4 ± 1.2 m/s
- mass density (323.15 K): 1154.42 ± 0.36 kg/m3
- speed of sound (328.15 K): 1302.8 ± 1.2 m/s
- mass density (328.15 K): 1149.45 ± 0.35 kg/m3
- speed of sound (333.15 K): 1285.4 ± 1.2 m/s
- mass density (333.15 K): 1144.46 ± 0.35 kg/m3
- speed of sound (338.15 K): 1268.1 ± 1.2 m/s
- mass density (338.15 K): 1139.47 ± 0.34 kg/m3
- speed of sound (343.15 K): 1250.9 ± 1.2 m/s
- mass density (343.15 K): 1134.49 ± 0.34 kg/m3

Compound: COc1ccccc1O [2-methoxyphenol]
- speed of sound (288.15 K): 1567.6 ± 1.3 m/s
- mass density (288.15 K): 1138.64 ± 0.34 kg/m3
- speed of sound (293.15 K): 1548.3 ± 1.3 m/s
- mass density (293.15 K): 1133.81 ± 0.34 kg/m3
- speed of sound (298.15 K): 1528.7 ± 1.3 m/s
- mass density (298.15 K): 1128.96 ± 0.34 kg/m3
- speed of sound (303.15 K): 1509.3 ± 1.3 m/s
- mass density (303.15 K): 1124.11 ± 0.33 kg/m3
- speed of sound (308.15 K): 1490 ± 1.3 m/s
- mass density (308.15 K): 1119.25 ± 0.33 kg/m3
- speed of sound (313.15 K): 1470.7 ± 1.3 m/s
- mass density (313.15 K): 1114.38 ± 0.32 kg/m3
- speed of sound (318.15 K): 1451.5 ± 1.3 m/s
- mass density (318.15 K): 1109.51 ± 0.32 kg/m3
- speed of sound (323.15 K): 1432.4 ± 1.3 m/s
- mass density (323.15 K): 1104.63 ± 0.32 kg/m3
- speed of sound (328.15 K): 1413.5 ± 1.3 m/s
- mass density (328.15 K): 1099.74 ± 0.31 kg/m3
- speed of sound (333.15 K): 1394.6 ± 1.2 m/s
- mass density (333.15 K): 1094.84 ± 0.31 kg/m3
- speed of sound (338.15 K): 1375.8 ± 1.2 m/s
- mass density (338.15 K): 1089.94 ± 0.3 kg/m3
- speed of sound (343.15 K): 1357.1 ± 1.2 m/s
- mass density (343.15 K): 1085.02 ± 0.3 kg/m3

Compound: Oc1ccccc1 [phenol]
- speed of sound (318.15 K): 1437.2 ± 1.3 m/s
- mass density (318.15 K): 1054.1 ± 0.27 kg/m3
- speed of sound (323.15 K): 1422.1 ± 1.3 m/s
- mass density (323.15 K): 1049.81 ± 0.27 kg/m3
- speed of sound (328.15 K): 1406.8 ± 1.2 m/s
- mass density (328.15 K): 1045.5 ± 0.27 kg/m3
- speed of sound (333.15 K): 1391.4 ± 1.2 m/s
- mass density (333.15 K): 1041.16 ± 0.26 kg/m3
- speed of sound (338.15 K): 1376.1 ± 1.2 m/s
- mass density (338.15 K): 1036.79 ± 0.26 kg/m3
- speed of sound (343.15 K): 1360.6 ± 1.2 m/s
- mass density (343.15 K): 1032.4 ± 0.26 kg/m3

Compound: Cc1cccc(O)c1 [3-methylphenol]
- speed of sound (293.15 K): 1497.9 ± 1.3 m/s
- mass density (293.15 K): 1033.84 ± 0.26 kg/m3
- speed of sound (298.15 K): 1481.9 ± 1.3 m/s
- mass density (298.15 K): 1029.91 ± 0.25 kg/m3
- speed of sound (303.15 K): 1466.2 ± 1.3 m/s
- mass density (303.15 K): 1025.96 ± 0.25 kg/m3
- speed of sound (308.15 K): 1450.5 ± 1.3 m/s
- mass density (308.15 K): 1021.99 ± 0.25 kg/m3
- speed of sound (313.15 K): 1435 ± 1.3 m/s
- mass density (313.15 K): 1018 ± 0.24 kg/m3
- speed of sound (318.15 K): 1419.5 ± 1.3 m/s
- mass density (318.15 K): 1013.99 ± 0.24 kg/m3
- speed of sound (323.15 K): 1403.9 ± 1.2 m/s
- mass density (323.15 K): 1009.97 ± 0.24 kg/m3
- speed of sound (328.15 K): 1388.4 ± 1.2 m/s
- mass density (328.15 K): 1005.91 ± 0.23 kg/m3
- speed of sound (333.15 K): 1372.9 ± 1.2 m/s
- mass density (333.15 K): 1001.84 ± 0.23 kg/m3
- speed of sound (338.15 K): 1357.3 ± 1.2 m/s
- mass density (338.15 K): 997.743 ± 0.23 kg/m3
- speed of sound (343.15 K): 1341.8 ± 1.2 m/s
- mass density (343.15 K): 993.626 ± 0.23 kg/m3

Compound: Cc1ccccc1O [2-methylphenol]
- speed of sound (293.15 K): 1522.6 ± 1.3 m/s
- mass density (293.15 K): 1045.77 ± 0.27 kg/m3
- speed of sound (298.15 K): 1505.5 ± 1.3 m/s
- mass density (298.15 K): 1041.41 ± 0.26 kg/m3
- speed of sound (303.15 K): 1488.2 ± 1.3 m/s
- mass density (303.15 K): 1037.05 ± 0.26 kg/m3
- speed of sound (308.15 K): 1470.2 ± 1.3 m/s
- mass density (308.15 K): 1032.64 ± 0.26 kg/m3
- speed of sound (313.15 K): 1452.7 ± 1.3 m/s
- mass density (313.15 K): 1028.25 ± 0.25 kg/m3
- speed of sound (318.15 K): 1435.2 ± 1.3 m/s
- mass density (318.15 K): 1023.83 ± 0.25 kg/m3
- speed of sound (323.15 K): 1417.7 ± 1.3 m/s
- mass density (323.15 K): 1019.39 ± 0.24 kg/m3
- speed of sound (328.15 K): 1400.2 ± 1.2 m/s
- mass density (328.15 K): 1014.93 ± 0.24 kg/m3
- speed of sound (333.15 K): 1382.8 ± 1.2 m/s
- mass density (333.15 K): 1010.46 ± 0.24 kg/m3
- speed of sound (338.15 K): 1365.3 ± 1.2 m/s
- mass density (338.15 K): 1005.97 ± 0.23 kg/m3
- speed of sound (343.15 K): 1347.7 ± 1.2 m/s
- mass density (343.15 K): 1001.46 ± 0.23 kg/m3
